Measurements reported in patent publication US20150343016A1, “CHEMICAL ENTITIES AND THERAPEUTIC USES THEREOF” (The Regents of the University of Colorado, a body corporate, priority 2010, published 2015).
“Also recorded” adds a separate entry of the source. Where two headings read alike, the source gives them in different places.

Columns and labels:
Det562 cells = assay: MTT assay, Bouvardin with ionizing radiation, Det562 (same-day treatment); type: cell-based, human
Description: (§1) “Combination Index” computation. Combination Indices were calculated using CalcuSyn software (Biosoft), which uses the method of Chou and Talalay. This method first computes drug-induced effect using the Hill Equation: where E is the measured effect; C is the drug concentration; Emax is the full range of drug effect, usually at or near 100%; IC50 is the drug concentration producing the median effect of 50%; and n is the curve shape parameter describing the steepness of the concentration-effect relationship. The Chou and Talalay method then linearizes the Hill Equation by logarithmic transformation as: where fu is the fraction of cells left unaffected after drug exposure, fa is the fraction of cells affected by the exposure, C is the drug concentration used, Cm is the concentration to achieve the median effect, and n is the curve shape parameter. Cm and n are equivalent to IC50 and n, respectively, in the Hill Equation. The values of n (obtained from the slope), nlog(Cm) (obtained from the absolute value of the intercept), and, therefore, Cm are obtained by plotting log(fu−1−1) versus log(C). These numbers are then used to compute the Combination Index (CI) according to the formula: CI=(D)1/(Dx)1+(D)2/(Dx)2 (26). (Dx)1 and (Dx)2 are the doses required to achieve a given effect level for each treatment, i.e. a specified value of Fraction Affected or Fa. (D)1 and (D)2 are the doses of each treatment in a given combination which gives the same Fa.
(§2) For FIG. 19 MTT assays were used to determine the effect of Bouvardin (concentrations in uM) in combination with ionizing radiation (in Gy). The data from same-day treatment of IR and Bouvardin are shown, for comparison with taxol-Bouvardin combination that were also applied on the same day. In general, CI values were lower for FaDu cells than for Det562 cells in two separate experiments (only one set is shown). On Det562 cells, CI values were about 1 for most combinations. CI value for Det562 cells at 0.001 uM/1Gy and at >0.06 uM are not included in the graph because the values are >10 and would have made smaller values harder to see. On FaDu cells, CI values were below 1 at concentrations of 0.03 or lower, were about 1 for 0.06 uM drug, and were over 1 at higher concentrations.
(§3) The growth inhibitory effects of Bouvardin with ionizing radiation (IR) were evaluated using a modified tetrazolium salt (MTT) assay. In the MTT assay, 1,000 to 2,000 viable cells were plated in 100 uL of growth medium in 96-well plates (Corning, Ithaca, N.Y.). Following an overnight incubation, drug was added in varying concentrations and the plates were irradiated on the same day (co-treatment) or 24 hr later (pre-treatment) and incubated for 6 to 7 days. The tetrazolium salt was added at a concentration of 0.4 mg/mL to each well following the 6- to 7-day treatment. The plates were incubated with the salt for 4 hours at 37° C. At 4 hours, the medium was aspirated off, leaving the dark blue formazan product at the bottom of the wells. The reduced MTT product was solubilized by adding […] of 0.2 N HCl in 75% isopropanol, 23% MilliQ water to each well. Thorough mixing was done using a Titertek multichannel pipetman. The absorbency of each well was measured using an automated plate reader (Molecular Devices, Sunnyvale, Calif.). All experiments were done in triplicate.

FaDu cells = assay: MTT assay, Bouvardin with ionizing radiation, FaDu (same-day treatment); type: cell-based, human
Description: as §1, §2, §3

H157 tumor xenografts = H157 tumor xenografts in athymic mice, Bouvardin with radiation; type: in vivo
From the text: The effectiveness of Bouvardin, IR and the combination of the two was next assessed in H157 tumor xenografts (FIG. 17B). […] Similar results were obtained in a repeat experiment (not shown). […] Bouvardin enhances the effect of radiation in Drosophila mutant larvae, human cancer cells and tumor xenografts in mice. The choice of drug concentration would be critical.
In FIG. 17 (A) Clonogenic assays were used to confirm the effects of Bouvardin in combination with radiation in H157 cells. Cells were plated in 6 well plates at 1,000 cells per well. 24 hours later, various doses of (1 nM, 5 nM and 10 nM) of Bouvardin were added with media alone as a control. 24 hours after the addition of Bouvardin, the cells were irradiated at 0, 2, 4 and 6 Gy. Colonies were allowed to form for 2 weeks and then counted. The results are shown as a percentage of control (no drug, no IR). Error bar=±1SEM. (B) The effect of Bouvardin (Bvd) and radiation on H157 xenografts in athymic mice. Bouvardin treatment began when tumors had reached approximately 200 mm3. Bouvardin was administered intraperitonealy twice a week, and radiation was administered 24 hr after each drug administration Animals in control and drug-only groups had tumors that were too large and had to be sacrificed on day 26. Treatment continued for the other two groups for one more week. The difference in tumor volume between combination-treated group and radiation only group was statistically significant at day 30 (p=0.0387 on day 30; upaired two tailed t-test). The difference in tumor volume between combination-treated group and radiation only group remains on day 33 but is less significant (p=0.0967; upaired two tailed t-test). N=10 per group. The data points indicate mean tumor volumes ±1SEM.
Six to 8-week-old female nude athymic mice were purchased from Harlan Laboratories and housed in a pathogen-free facility approved by the American Association for the Accrediation of Laboratory Animal Care and met all current regulations and standards of the U.S. Department of Agriculture, the U.S. Department of Health and Human Services and the National Institutes of Health Animal procedures were carried out in accordance with a protocol approved by the Institutional Animal Care and Use Committee of the University of Colorado. Cancer cells were grown to 80% confluence and harvested by trypsinization. Trypsin was neutralized with complete medium containing FBS. […] Mice were treated for 3 weeks, and tumor growth was measured until volume exceeded 2 cm3, when animals were euthanized. Tumor volume was measured on Tuesdays and Fridays. Tumor volume was calculated using the formula V=a2×b/2, where a and b are the smallest and largest tumor diameters, respectively, as determined using calipers.

SMILES: COc1ccc(C[C@H]2C(=O)N[C@H](C)C(=O)N(C)[C@@H]3C(=O)N(C)[C@@H](Cc4ccc(O)c(c4)Oc4ccc(cc4)[C@H]3O)C(=O)N[C@@H](C)C(=O)N[C@H](C)C(=O)N2C)cc1 (stereo in doubt) [Bouvardin, bouvardin]
- interaction of Bouvardin with IR (Det562 cells): a wide range of effects, synergistic to antagonistic
- CI value, Bouvardin with IR (Det562 cells; 0.001 uM/1Gy): > 10
- CI value, Bouvardin with IR (Det562 cells; at >0.06 uM): > 10
- interaction of Bouvardin with IR (Det562 cells; listed as bouvardin): synergizes with ionizing radiation
- CI values, Bouvardin with IR (Det562 cells; most combinations): about 1
- Bouvardin concentrations at which synergy was seen when combined with radiation (FaDu cells; Det562 and FaDu (FIG. 19)): lower than 0.06 μM
- interaction of Bouvardin with IR (FaDu cells; FaDu): a wide range of effects, synergistic to antagonistic
- CI values, Bouvardin with IR (FaDu cells; FaDu, 0.06 uM drug): about 1
- CI values, Bouvardin with IR (FaDu cells; FaDu, concentrations higher than 0.06 uM): over 1
- CI values, Bouvardin with IR (FaDu cells; FaDu, concentrations of 0.03 or lower): below 1
- tumor control, drug with radiation versus radiation alone (H157 tumor xenografts; 0.2 mg/kg + radiation 24 hr after each drug administration, p=0.0387 on day 30, p=0.0967 on day 33): improved control of tumor volume in a statistically significant manner; also recorded: enhanced the effect of IR
- tumor control, drug alone (H157 tumor xenografts; 0.2 mg/kg intraperitonealy twice a week): had little effect on its own
- tumor control, drug alone (H157 tumor xenografts; 0.4 mg/kg): shows tumor control; also recorded: had effect on its own
- tumor control, drug with radiation versus radiation alone (H157 tumor xenografts; 0.4 mg/kg + radiation): did not enhance the effect of radiation; also recorded: did not enhance the effect of IR
